“And” between values parts separate entries of the source, which are not always exact repeats. Identical values can stand only once.

The target in the assay is Protein Wnt-3a (Mus musculus, UniProt P27467). As to the kind of experiment: Dual-Cell beta-Catenin Reporter Assay. The protocol:
Mouse L cells transfected to constitutively produce biologically active murine Wnt-3a, referred to as L-Wnt cells, were purchased from the American Type Culture Collection, ATCC, Manassas, Va. (ATCC). These cells were cultured in DMEM supplemented with 10% FCS (Gibco/Invitrogen, Carlsbad, Calif.), 1% geneticin and 1% sodium pyruvate (Sigma) at 37° C. with 5% CO2. The cells were seeded into 96 well plates and treated with serial dilutions of compound diluted to 0.1% DMSO concentration. After 24 hours, cell supernatants were transferred to a 96 well plate previously seeded with Leading Light Wnt Reporter Cells, stably transfected with a luciferase gene under control of Wnt pathway response elements. After a further 24 hours, cells are treated with One-glo luciferase assay system (Promega, Madison, Wis.) and the luminescent signal read by envision.
On the technique in general: Reporter assays use an easily measured gene product as a stand-in for the process of interest.

Chain of Protein Wnt-3a (P27467 whole entry): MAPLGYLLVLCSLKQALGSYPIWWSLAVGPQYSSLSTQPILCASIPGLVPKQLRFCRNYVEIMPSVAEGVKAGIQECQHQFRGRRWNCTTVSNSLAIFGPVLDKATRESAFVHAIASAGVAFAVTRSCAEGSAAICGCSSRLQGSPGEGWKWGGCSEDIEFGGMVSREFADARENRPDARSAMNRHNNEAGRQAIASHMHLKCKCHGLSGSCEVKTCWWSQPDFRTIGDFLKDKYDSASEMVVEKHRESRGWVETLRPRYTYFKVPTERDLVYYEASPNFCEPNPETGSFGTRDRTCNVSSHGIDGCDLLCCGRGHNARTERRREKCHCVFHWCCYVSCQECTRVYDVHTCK

One may read the IC50 as the concentration that inhibits the measured activity by half. Read a low IC50 as greater potency. On to `Cc1cc(-c2nc(C)nc3c2ccn3CC(=O)Nc2ccc(-c3cnccn3)cn2)ccn1` [US10202375, Example 10], for which the IC50 was < 1 nM and 0.32 nM.
`Cc1cc(-c2ccnc3c2cnn3CC(=O)Nc2ccc(-c3cnccn3)nc2)ccn1` [US10202375, Example 15] yielded an IC50 of 3 nM.
As to `Cc1cc(-c2nccc3c2ncn3CC(=O)Nc2ccc(-c3cnccn3)cn2)ccn1` [US10202375, Example 20], the midpoint of inhibition, the IC50, lay at 3 nM.

The values above are taken from BindingDB's records for patent US10202375 (Redx Pharma PLC, 2019).
